Test results reported in DBAASP.
In brackets after ≈: the same amount, converted by molar mass. Several values for one entry are separate records, joined by “and”; a condition that tells them apart may be missing. Equal values may be shown once. One block for each molecule: values may come before it.

Experiments:
Assay in all cases: ≥ marks a high value that may be exact or a test limit, other limits are often not marked, values filed in µg/mL are converted to µM
Bacillus subtilis 168 HT = system: Bacillus subtilis 168 HT
Escherichia coli MG1655 = system: Escherichia coli MG1655
[1] = system: Staphylococcus aureus NCTC 10788
[2] = system: Escherichia coli NCTC 10418
[3] = system: Candida albicans NCPF 1467
[4] = system: Streptococcus pneumoniae ATCC 11733
[5] = system: Escherichia coli ATCC 11775
[6] = system: Escherichia coli ATCC 25922
[7] = system: Salmonella enterica subsp. enterica serovar Choleraesuis ATCC 10708
[8] = system: Staphylococcus epidermidis ATCC 12228
[9] = system: Escherichia coli CCT 1457
[10] = system: Enterococcus faecium CCT 5079
[11] = system: Micrococcus luteus ATCC 4698
[12] = system: Bacillus cereus ATCC 11778
[13] = system: Staphylococcus aureus ATCC 25923
[14] = system: Enterococcus hirae ATCC 10541
[15] = system: Bacillus thuringiensis ATCC 10792
[16] = system: Streptococcus mutans AU159
[17] = system: Staphylococcus aureus CCT 2580
[18] = system: Pseudomonas aeruginosa ATCC 15422
[19] = system: Salmonella enterica subsp. enterica serovar Typhimurium ATCC 14028
[20] = system: Pseudomonas aeruginosa ATCC 13388
[21] = system: Staphylococcus aureus CCT 6538
[22] = system: Acinetobacter baumannii KCTC 2508
[23] = system: Bacillus subtilis KCTC 2217
[24] = system: Escherichia coli K12 MG1655
[25] = system: Porphyromonas gingivalis ATCC 33277
[26] = system: Candida albicans NBRC 1385
[27] = system: Cutibacterium acnes JCM 6473
[28] = system: Streptococcus mutans JCM 5705
Escherichia coli JW0013 = system: Escherichia coli JW0013

MIC (Bacillus subtilis 168 HT): 12.6 µM (≈ 16.1 µg/mL)
MIC (Escherichia coli MG1655): ≥ 100 µM
Structure (SMILES): CC[C@H](C)[C@H](NC(=O)[C@H](CC(C)C)NC(=O)[C@@H](N)CS)C(=O)N[C@@H](CCSC)C(=O)N[C@@H](CCCCN)C(=O)N[C@H](C(=O)N[C@@H](CCCN=C(N)N)C(=O)N[C@@H](CCCN=C(N)N)C(=O)N[C@@H](CCCCN)C(=O)N[C@@H](CCCCN)C(=O)O)C(C)C [CLIMKVRRKK]

MIC [1]: 8 µM (≈ 15.4 µg/mL)
MIC [2]: ≥ 250 µM
MIC [3]: 16 µM (≈ 30.8 µg/mL)
Structure (SMILES): CC[C@H](C)[C@H](NC(=O)[C@H](C)NC(=O)[C@H](CC(N)=O)NC(=O)[C@@H]1CCCN1C(=O)[C@@H](NC(=O)[C@H](CC(C)C)NC(=O)[C@H](CO)NC(=O)[C@H](Cc1ccccc1)NC(=O)[C@H](CC(C)C)NC(=O)[C@@H](N)Cc1ccccc1)[C@@H](C)CC)C(=O)N[C@@H](CO)C(=O)NCC(=O)N[C@@H](CC(C)C)C(=O)N[C@@H](CC(C)C)C(=O)N[C@@H](CO)C(=O)N[C@@H](C)C(=O)N[C@@H](Cc1ccccc1)C(=O)N[C@H](C=O)CCCCN [FLFSLIPNAISGLLSAFK]

MIC [4]: 0.583 µM (≈ 1 µg/mL)
MIC [5]: 9.33 µM (≈ 16 µg/mL)
MIC [6]: 9.33 µM (≈ 16 µg/mL)
MIC [8]: 0.583 µM (≈ 1 µg/mL)
MIC [9]: 0.583 µM (≈ 1 µg/mL)
MIC [10]: 1.17 µM (≈ 2 µg/mL)
MIC [11]: 0.583 µM (≈ 1 µg/mL)
MIC [12]: ≥ 72.9 µM
MIC [13]: 1.17 µM (≈ 2 µg/mL)
MIC [14]: ≥ 36.8 µM
MIC [15]: ≥ 72.9 µM
MIC [16]: 9.33 µM (≈ 16 µg/mL)
MIC [17]: 1.17 µM (≈ 2 µg/mL)
MIC [18]: 9.33 µM (≈ 16 µg/mL)
MIC [19]: 4.67 µM (≈ 8 µg/mL)
MIC [20]: 9.33 µM (≈ 16 µg/mL)
MIC [21]: ≥ 36.8 µM
Structure (SMILES): CC[C@H](C)[C@H](N)C(=O)N[C@@H](CC(N)=O)C(=O)N[C@@H](Cc1c[nH]c2ccccc12)C(=O)N[C@@H](CCCCN)C(=O)N[C@@H](CCCCN)C(=O)N[C@H](C(=O)N[C@@H](CCCCN)C(=O)N[C@@H](CCCCN)C(=O)N[C@@H](CCCCN)C(=O)N[C@H](C(=O)N[C@@H](CCCCN)C(=O)NCC(=O)N[C@@H](CCSC)C(=O)N[C@@H](CC(C)C)C(N)=O)C(C)C)[C@@H](C)CC [INWKKIKKKVKGML]
MIC [7]: 18.1 µM (≈ 31 µg/mL)

MIC [4]: 1.36 µM (≈ 2 µg/mL)
MIC [5]: ≥ 340 µM
MIC [6]: 85 µM (≈ 125 µg/mL)
MIC [8]: 42.8 µM (≈ 63 µg/mL)
MIC [9]: 21.1 µM (≈ 31 µg/mL)
MIC [10]: ≥ 340 µM
MIC [11]: ≥ 85 µM
MIC [12]: ≥ 85 µM
MIC [13]: 170 µM (≈ 250 µg/mL)
MIC [14]: ≥ 340 µM
MIC [15]: ≥ 85 µM
MIC [16]: ≥ 340 µM
MIC [17]: 0.68 µM (≈ 0.999 µg/mL)
MIC [18]: 21.1 µM (≈ 31 µg/mL)
MIC [19]: 340 µM (≈ 500 µg/mL)
MIC [20]: ≥ 340 µM
MIC [21]: ≥ 170 µM
Structure (SMILES): CC[C@H](C)[C@H](N)C(=O)N[C@@H](CC(N)=O)C(=O)N[C@@H](Cc1c[nH]c2ccccc12)C(=O)N[C@@H](CC(C)C)C(=O)N[C@@H](CCCCN)C(=O)N[C@H](C(=O)N[C@@H](C)C(=O)N[C@@H](C)C(=O)N[C@@H](C)C(=O)N[C@H](C(=O)N[C@@H](C)C(=O)NCC(=O)N[C@@H](CCSC)C(=O)N[C@@H](CC(C)C)C(N)=O)C(C)C)[C@@H](C)CC [INWLKIAAAVAGML]
MIC [7]: ≥ 340 µM

MIC [22]: 3.13 µM (≈ 6.05 µg/mL)
MIC [23]: 1.56 µM (≈ 3.01 µg/mL)
MIC [13]: 1.56 µM and > 0.78 µM
Structure (SMILES): CC(C)C[C@H](NC(=O)[C@H](CCCCN)NC(=O)[C@H](CCCCN)NC(=O)[C@H](CC(C)C)NC(=O)[C@H](CC(C)C)NC(=O)[C@H](CCCCN)NC(=O)[C@H](CCCCN)NC(=O)[C@H](CC(C)C)NC(=O)[C@H](CC(C)C)NC(=O)[C@@H]1CCCN1C(=O)[C@H](CCCCN)NC(=O)[C@H](CCCCN)NC(=O)[C@H](CC(C)C)NC(=O)[C@H](CC(C)C)NC(=O)[C@H](CCCCN)NC(=O)[C@@H](N)CCCCN)C(N)=O [KKLLKKPLLKKLLKKL]

MIC [24]: ≥ 89.8 µM
Structure (SMILES): CC[C@H](C)[C@H](NC(=O)CNC(=O)[C@@H](NC(=O)[C@H](CCCCN)NC(=O)[C@H](C)NC(=O)[C@H](CC(C)C)NC(=O)[C@H](CS)NC(=O)[C@H](CCCCN)NC(=O)[C@H](Cc1c[nH]c2ccccc12)NC(=O)[C@@H](N)CCCCN)C(C)C)C(=O)N[C@@H](C)C(=O)N[C@@H](C)C(=O)N[C@@H](Cc1cnc[nH]1)C(=O)O [KWKCLAKVGIAAH]

MIC [22]: 12.5 µM (≈ 20.9 µg/mL)
MIC [23]: 1.56 µM (≈ 2.61 µg/mL)
MIC [13]: 1.56 µM and > 0.78 µM
Structure (SMILES): CC(C)C[C@H](NC(=O)[C@H](CCCCN)NC(=O)[C@H](CCCCN)NC(=O)[C@H](CC(C)C)NC(=O)[C@H](CC(C)C)NC(=O)[C@H](CCCCN)NC(=O)[C@H](CCCCN)NC(=O)[C@H](CC(C)C)NC(=O)[C@H](CC(C)C)NC(=O)[C@@H]1CCCN1C(=O)[C@H](CCCCN)NC(=O)[C@H](CCCCN)NC(=O)[C@H](CC(C)C)NC(=O)[C@@H](N)CC(C)C)C(N)=O [LLKKPLLKKLLKKL]

MIC [25]: ≥ 256 µM
MIC [26]: ≥ 512 µM
MIC [27]: ≥ 1020 µM
MIC [28]: ≥ 1020 µM
Structure (SMILES): CC[C@H](C)[C@H](NC(=O)[C@@H](N)CCCN=C(N)N)C(=O)N[C@@H](CCCN=C(N)N)C(=O)N[C@@H](CC(C)C)C(=O)N[C@@H](CC(C)C)C(=O)N[C@@H](CCC(N)=O)C(=O)N[C@@H](CCCN=C(N)N)C(=O)N[C@@H](Cc1ccccc1)C(=O)N[C@@H](CC(N)=O)C(=O)N[C@@H](CCCCN)C(=O)N[C@@H](CCCN=C(N)N)C(=O)O [RIRLLQRFNKR]

MIC [25]: ≥ 1020 µM
MIC [26]: ≥ 1020 µM
MIC [27]: ≥ 1020 µM
MIC [28]: ≥ 1020 µM
Structure (SMILES): C[C@@H](O)[C@H](NC(=O)[C@H](CCCCN)NC(=O)[C@H](CCCCN)NC(=O)[C@H](CO)NC(=O)[C@H](CCCN=C(N)N)NC(=O)[C@H](Cc1c[nH]c2ccccc12)NC(=O)[C@H](CCC(=O)O)NC(=O)[C@H](CCCN=C(N)N)NC(=O)[C@H](CO)NC(=O)[C@H](CCCCN)NC(=O)[C@@H](N)CCCN=C(N)N)C(=O)N[C@@H](CCC(N)=O)C(=O)N1CCC[C@H]1C(=O)N[C@@H](CCCN=C(N)N)C(=O)N[C@@H](CCCN=C(N)N)C(=O)N1CCC[C@H]1C(=O)N[C@@H](CCCN=C(N)N)C(=O)O [RKSREWRSKKTQPRRPR]

MIC (Escherichia coli JW0013): 1.4 µM (≈ 3.3 µg/mL)
Structure (SMILES): CC[C@H](C)[C@H](NC(=O)[C@H](CCCN=C(N)N)NC(=O)[C@H](CCCN=C(N)N)NC(=O)[C@@H]1CCCN1C(=O)[C@@H]1CCCN1C(=O)[C@H](CCCN=C(N)N)NC(=O)[C@@H]1CCCN1C(=O)[C@H](CCCN=C(N)N)NC(=O)[C@@H]1CCCN1C(=O)[C@H](CC(C)C)NC(=O)[C@H](Cc1ccc(O)cc1)NC(=O)[C@@H]1CCCN1C(=O)CNC(=O)[C@H](CCCCN)NC(=O)[C@H](CC(=O)O)NC(=O)[C@@H](N)C(C)C)C(=O)N[C@@H](Cc1ccc(O)cc1)C(=O)N[C@@H](CC(N)=O)C(=O)N[C@@H](CCCN=C(N)N)C(N)=O [VDKGPYLPRPRPPRRIYNR]

MIC (Escherichia coli JW0013): 0.663 µM (≈ 1.6 µg/mL)
Structure (SMILES): CC[C@H](C)[C@H](NC(=O)[C@H](CCCN=C(N)N)NC(=O)[C@H](CCCN=C(N)N)NC(=O)[C@@H]1CCCN1C(=O)[C@@H]1CCCN1C(=O)[C@H](CCCN=C(N)N)NC(=O)[C@@H]1CCCN1C(=O)[C@H](CCCN=C(N)N)NC(=O)[C@@H]1CCCN1C(=O)[C@H](CC(C)C)NC(=O)[C@H](CCCN=C(N)N)NC(=O)[C@@H]1CCCN1C(=O)[C@H](CCCCN)NC(=O)[C@H](CCCCN)NC(=O)[C@H](CC(=O)O)NC(=O)[C@@H](N)C(C)C)C(=O)N[C@@H](Cc1ccc(O)cc1)C(=O)N[C@@H](CC(N)=O)C(=O)N[C@@H](CCCN=C(N)N)C(N)=O [VDKKPRLPRPRPPRRIYNR]
